Reference: patent publication US8420574B2, “Plant growth enhancement with combinations of PESA and herbicides” (Valent BioSciences Corporation, priority 2009, dated 2013)
Where a name gives a salt, the structure may show the parent alone.

Tests used:
Format in all cases: in vivo
[1] = tested on: rice cv. Cheniere; experiment: Pouch assay with PESA salt seed treatment; root length; settings: for Root Length: untreated 9.8
Description: Procedure for Treating Samples of Seed in the Laboratory
(§1) Seed was sieved with a screen of mesh size appropriate to remove broken seeds and small trash. Cracked or otherwise damaged seeds were removed. The seed was well mixed, and 50 g samples were weighed into small plastic trays. Seed treatment slurries were made by adding measured amounts of PESA or its salts and other AIs to sufficient water to bring them up to a standard volume, typically 2 ml. A fungicide (Maxim XL; Syngenta Agricultural Products, Greensboro, N.C.), a polymeric binder (CF-Clear; Becker-Underwood, Ames, Iowa), and a colorant (Color Coat Red; Becker-Underwood, Ames, Iowa) were also included in the slurry at label rates. A small aliquot of this slurry was applied to the seed using the Hege 11 coater (Wintersteiger, Salt Lake City, Utah) with a six-inch bowl at a slurry rate of 30 ounces per 100 lbs of seed. The slurry was deposited drop-wise on the spinning disk atomizer using a syringe.
After treatment, each seed sample was placed in plastic trays and dried at a room temperature for 20 to 60 minutes. The samples were then placed in small plastic bags. Samples were spot-checked using a water activity meter to make sure the water activity is below 0.7.
(§2) Seeds were placed in germination pouches consisting of germination paper hydrated with sterile water that was an insert in a gas-permeable 16×14 cm plastic pouch (CYG Pouch; Mega International, St. Paul, Minn.). In these examples, in pouch solution evaluation, PESA sodium salt or other active ingredients were added to the sterile water in the pouch. The pouches were arranged in a completely randomized block design in growth racks and placed in 19-liter polycarbonate food storage containers (Rubbermaid Commercial Products, Winchester, Va.). The sealed containers were held in an upright growth cabinet maintained at 25 C with a 12 hour light: 12 hour dark photoperiod. After 6 days, the containers were removed from the growth cabinet, and the lengths of the roots and shoot were measured.
Rice cv. Chemere was treated with PESA sodium salt prior to growing in the pouch. The treated seeds were then grown in the pouch in a dose-dependent series of trifluralin concentrations (Table 2). […] This confirms that seed treatment with the PESA salt protects or safens rice from the negative effects of trifluralin herbicide on root growth.

[2] = tested on: cotton; experiment: Pouch assay; root and shoot length of cotton; settings: for Shoot Length / Root Length: 30 ppm PESA salt; for Shoot Length: untreated 4.7; for Root Length: untreated 7.7
Description: as §2

[3] = tested on: rice cv. Nipponbare; experiment: Hydroponic assay; total root length and shoot length; settings: for Shoot Length / Total Root Length: 40 ppm PESA salt
Description: Where hydroponically-grown rice was used in studies, the seeds were pre-incubated in water at 30 C for 2 days to stimulate germination. Three seeds were placed on a float and cultivated hydroponically in a test tube (25 mm×200 mm), which contained 50 ml of Kimura B nutrient solution at ⅛th strength supplemented with herbicides and PESA sodium salt. The exposure of the roots to the light was prevented by wrapping the tubes with aluminum foil. The rice seedlings were incubated in a growth cabinet at 25 C under continuous light for 14 days, and the total root length and shoot length were measured. Total root length (cm) was the root length/plant determined following scanning with WinRhizo software (Regent Instruments INC, Toronto, Canada).

[4] = tested on: rice cv. Cheniere; experiment: Emergence of seed-treated rice seeded onto soil previously treated with herbicide; settings: for Percent Emergence at 9 days after planting: untreated 90
From the text: as §1, with “Seed treatment slurries were made by adding measured amounts of PESA or its salts and other AIs to sufficient water to bring them up to a standard volume, typically 2 ml.” left out
Rice cv. […] It was then seeded onto soil which was previously sprayed with the pendimethalin herbicide Prowl H2O® (BASF Agricultural Products, Research Triangle Park, N.C.).
After seed treatment, rice was seeded into soil previously treated with the dithiopyr herbicide Dimension®.
Rice seed treated with PESA was tested for its ability to protect rice from the herbicide Roundup WeatherMax® (glyphosate). After seed treatment, rice was seeded into soil previously treated with the Roundup WeatherMax®.

[5] = 40 ppm PESA salt with 0.1 ppm dicamba
[6] = 40 ppm PESA salt with 0.1 ppm imazosulfuron
[7] = 40 ppm PESA salt with 1 ppm flumioxazin

Compound: O=C(O)CCC(=O)NCCc1ccccc1 [PESA salt, N-(2-phenylethyl)succinamic acid]
- protection of root growth by seed treatment ([1]; PESA salt seed treatment, trifluralin 50 ppm): significant protection against intermediate rates of trifluralin (50 ppm)
- Root Length ([1]; seed treatment 10 g PESA salt/100 lbs of seed, 0 ppm trifluralin): 10.7 cm
- Root Length ([1]; seed treatment 10 g PESA salt/100 lbs of seed, 50 ppm trifluralin): 4.6 cm
- Root Length ([1]; seed treatment 10 g PESA salt/100 lbs of seed, 100 ppm trifluralin): 0.3 cm
- Root Length ([1]; seed treatment 25 g PESA salt/100 lbs of seed, 0 ppm trifluralin): 10.1 cm
- Root Length ([1]; seed treatment 25 g PESA salt/100 lbs of seed, 50 ppm trifluralin): 5.2 cm
- Root Length ([1]; seed treatment 25 g PESA salt/100 lbs of seed, 100 ppm trifluralin): 0.3 cm
- Root Length ([1]; seed treatment 50 g PESA salt/100 lbs of seed, 0 ppm trifluralin): 10.3 cm
- Root Length ([1]; seed treatment 50 g PESA salt/100 lbs of seed, 50 ppm trifluralin): 6.0 cm
- Root Length ([1]; seed treatment 50 g PESA salt/100 lbs of seed, 100 ppm trifluralin): 0.3 cm
- Shoot Length ([2]; 0 ppm chlorsulfuron): 5.2 cm
- Root Length ([2]; 0 ppm chlorsulfuron): 14.0 cm
- Shoot Length ([2]; 1 ppm chlorsulfuron): 2.7 cm
- Root Length ([2]; 1 ppm chlorsulfuron): 2.1 cm
- Shoot Length ([2]; 10 ppm chlorsulfuron): 1.7 cm
- Root Length ([2]; 10 ppm chlorsulfuron): 2.0 cm
- Shoot Length ([2]; 100 ppm chlorsulfuron): 1.7 cm
- Root Length ([2]; 100 ppm chlorsulfuron): 2.0 cm
- protection of root length from herbicide ([2]; PESA salt with chlorsulfuron): unable to overcome the negative effects of chlorsulfuron on root length
- protection of roots from herbicide [3, 5]: largely protected the roots from the negative effects of dicamba
- protection of shoots from herbicide [3, 5]: largely protected the shoots from the negative effects of dicamba
- total root length increased by, as compared with untreated control [3, 5]: 61%
- protection of roots from herbicide [3, 6]: largely protected the roots from the negative effects of imazosulfuron
- total root length increased by, as compared with untreated control [3, 6]: 87%
- protection of roots from herbicide [3, 7]: protected the roots from the negative effects of flumioxazin
- protection of shoots from herbicide [3, 7]: largely protected the shoots from the negative effects of flumioxazin
- protection of shoots from herbicide ([3]; 40 ppm PESA salt with 1 ppm imazosulfuron): largely protected the shoots from the negative effects of the herbicide
- protection of roots from herbicide ([3]; 40 ppm PESA salt with 3 ppm clodinafop-propargyl): protected the roots from the negative effects of the herbicide
- Shoot Length ([3]; 0 ppm clodinafop-propargyl, untreated 10.6): 13.3 cm
- Total Root Length ([3]; 0 ppm clodinafop-propargyl, untreated 52.1): 193.9 cm
- Shoot Length ([3]; 0 ppm dicamba, untreated 11.4): 15.1 cm
- Total Root Length ([3]; 0 ppm dicamba, untreated 44.9): 121.9 cm
- Shoot Length ([3]; 0 ppm flumioxazin, untreated 10.6): 13.3 cm
- Total Root Length ([3]; 0 ppm flumioxazin, untreated 52.1): 193.9 cm
- Shoot Length ([3]; 0 ppm imazosulfuron, untreated 11.4): 15.1 cm
- Total Root Length ([3]; 0 ppm imazosulfuron, untreated 44.9): 121.9 cm
- Shoot Length ([3]; 0.01 ppm dicamba, untreated 11.4): 15.1 cm
- Total Root Length ([3]; 0.01 ppm dicamba, untreated 44.9): 155.4 cm
- Shoot Length ([3]; 0.01 ppm imazosulfuron, untreated 11.4): 14.5 cm
- Total Root Length ([3]; 0.01 ppm imazosulfuron, untreated 44.9): 169.8 cm
- Shoot Length ([3]; 0.1 ppm dicamba, untreated 11.4): 12.5 cm
- Total Root Length ([3]; 0.1 ppm dicamba, untreated 44.9): 72.5 cm
- Shoot Length ([3]; 0.1 ppm flumioxazin, untreated 10.6): 12.3 cm
- Total Root Length ([3]; 0.1 ppm flumioxazin, untreated 52.1): 132.6 cm
- Shoot Length ([3]; 0.1 ppm imazosulfuron, untreated 11.4): 13.2 cm
- Total Root Length ([3]; 0.1 ppm imazosulfuron, untreated 44.9): 83.8 cm
- Shoot Length ([3]; 0.3 ppm clodinafop-propargyl, untreated 10.6): 14.3 cm
- Total Root Length ([3]; 0.3 ppm clodinafop-propargyl, untreated 52.1): 202.6 cm
- Shoot Length ([3]; 0.3 ppm flumioxazin, untreated 10.6): 10.3 cm
- Total Root Length ([3]; 0.3 ppm flumioxazin, untreated 52.1): 102.8 cm
- Shoot Length ([3]; 1 ppm clodinafop-propargyl, untreated 10.6): 13.6 cm
- Total Root Length ([3]; 1 ppm clodinafop-propargyl, untreated 52.1): 110.5 cm
- Shoot Length ([3]; 1 ppm dicamba, untreated 11.4): 3.6 cm
- Total Root Length ([3]; 1 ppm dicamba, untreated 44.9): 9.2 cm
- Shoot Length ([3]; 1 ppm flumioxazin, untreated 10.6): 7.5 cm
- Total Root Length ([3]; 1 ppm flumioxazin, untreated 52.1): 53 cm
- Shoot Length ([3]; 1 ppm imazosulfuron, untreated 11.4): 7.9 cm
- Total Root Length ([3]; 1 ppm imazosulfuron, untreated 44.9): 13.8 cm
- Shoot Length ([3]; 3 ppm clodinafop-propargyl, untreated 10.6): 11.8 cm
- Total Root Length ([3]; 3 ppm clodinafop-propargyl, untreated 52.1): 44.3 cm
- Shoot Length ([3]; 3 ppm flumioxazin, untreated 10.6): 6.5 cm
- Total Root Length ([3]; 3 ppm flumioxazin, untreated 52.1): 24.4 cm
- Percent Emergence at 12 days after planting ([4]; Dimension (dithiopyr) 0.25 pints/acre, seed treatment none (Control), 1 g GA3 and/or 50 g PESA salt per 100 lbs of seed, untreated 72.1): 61.0%
- Percent Emergence at 12 days after planting ([4]; Dimension (dithiopyr) 0.5 pints/acre, seed treatment none (Control), 1 g GA3 and/or 50 g PESA salt per 100 lbs of seed, untreated 72.1): 13.9%
- protection of emergence from glyphosate ([4]; PESA seed treatment, soil treated with Roundup WeatherMax, at 90 μg/cm^2): could protect the rice seedlings from glyphosate
- Percent Emergence at 12 days after planting ([4]; Prowl (pendimethalin) 0.25 pints/acre, seed treatment none (Control), 1 g GA3 and/or 50 g PESA salt per 100 lbs of seed, untreated 84.5): 79.0%
- Percent Emergence at 12 days after planting ([4]; Prowl (pendimethalin) 0.5 pints/acre, seed treatment none (Control), 1 g GA3 and/or 50 g PESA salt per 100 lbs of seed, untreated 84.5): 80.7%
- Percent Emergence at 12 days after planting ([4]; Prowl (pendimethalin) 2 pints/acre, seed treatment none (Control), 1 g GA3 and/or 50 g PESA salt per 100 lbs of seed, untreated 84.5): 61.0%
- Percent Emergence at 12 days after planting ([4]; no Dimension (Control), seed treatment 1 g GA3 and/or 50 g PESA salt per 100 lbs of seed, untreated 72.1): 77.2%
- Percent Emergence at 12 days after planting ([4]; no Prowl (Control), seed treatment 1 g GA3 and/or 50 g PESA salt per 100 lbs of seed, untreated 84.5): 86.1%
- Percent Emergence at 9 days after planting ([4]; seed treatment 25 g PESA salt per 100 kg of seed, glyphosate 0 μg/cm2): 80%
- Percent Emergence at 9 days after planting ([4]; seed treatment 25 g PESA salt per 100 kg of seed, glyphosate 23 μg/cm2): 84%
- Percent Emergence at 9 days after planting ([4]; seed treatment 25 g PESA salt per 100 kg of seed, glyphosate 90 μg/cm2): 28%
- Percent Emergence at 9 days after planting ([4]; seed treatment 50 g PESA salt per 100 kg of seed, glyphosate 0 μg/cm2): 92%
- Percent Emergence at 9 days after planting ([4]; seed treatment 50 g PESA salt per 100 kg of seed, glyphosate 23 μg/cm2): 78%
- Percent Emergence at 9 days after planting ([4]; seed treatment 50 g PESA salt per 100 kg of seed, glyphosate 90 μg/cm2): 38%
- protection of emergence from pendimethalin ([4]; seed treatment, soil sprayed with Prowl H2O, particularly at 2 pints/acre): could protect the rice seedlings from pendimethalin
- protection of emergence from dithiopyr ([4]; seed treatment, soil treated with Dimension, particularly at 0.25 and 0.5 pints/acre): could protect the rice seedlings from dithiopyr
